# Experimental data: patent US10189859B2, “Derivatives of 6-(2,3-dichlorophenyl)-1,2,4-triazin-5-amine” (Nektar Therapeutics, priority 2013, dated 2019)
# Several values for one entry are separate records, joined by “and”; a condition that tells them apart may be missing. Equal values may be shown once. Where a name gives a salt, the structure may show the parent alone. Read-outs that look alike come from different tables or passages of the source.
# Legend:
# [1] = target: Nav1.7 sodium channels (human SCN9A gene) (Homo sapiens (Human), UniProt Q15858); assay: Automated patch clamp (IonWorks Barracuda) of Nav1.7 stably expressed in CHO cells; assay type: cell-based
# Sequence of Nav1.7 sodium channels (human SCN9A gene) (Q15858 whole entry): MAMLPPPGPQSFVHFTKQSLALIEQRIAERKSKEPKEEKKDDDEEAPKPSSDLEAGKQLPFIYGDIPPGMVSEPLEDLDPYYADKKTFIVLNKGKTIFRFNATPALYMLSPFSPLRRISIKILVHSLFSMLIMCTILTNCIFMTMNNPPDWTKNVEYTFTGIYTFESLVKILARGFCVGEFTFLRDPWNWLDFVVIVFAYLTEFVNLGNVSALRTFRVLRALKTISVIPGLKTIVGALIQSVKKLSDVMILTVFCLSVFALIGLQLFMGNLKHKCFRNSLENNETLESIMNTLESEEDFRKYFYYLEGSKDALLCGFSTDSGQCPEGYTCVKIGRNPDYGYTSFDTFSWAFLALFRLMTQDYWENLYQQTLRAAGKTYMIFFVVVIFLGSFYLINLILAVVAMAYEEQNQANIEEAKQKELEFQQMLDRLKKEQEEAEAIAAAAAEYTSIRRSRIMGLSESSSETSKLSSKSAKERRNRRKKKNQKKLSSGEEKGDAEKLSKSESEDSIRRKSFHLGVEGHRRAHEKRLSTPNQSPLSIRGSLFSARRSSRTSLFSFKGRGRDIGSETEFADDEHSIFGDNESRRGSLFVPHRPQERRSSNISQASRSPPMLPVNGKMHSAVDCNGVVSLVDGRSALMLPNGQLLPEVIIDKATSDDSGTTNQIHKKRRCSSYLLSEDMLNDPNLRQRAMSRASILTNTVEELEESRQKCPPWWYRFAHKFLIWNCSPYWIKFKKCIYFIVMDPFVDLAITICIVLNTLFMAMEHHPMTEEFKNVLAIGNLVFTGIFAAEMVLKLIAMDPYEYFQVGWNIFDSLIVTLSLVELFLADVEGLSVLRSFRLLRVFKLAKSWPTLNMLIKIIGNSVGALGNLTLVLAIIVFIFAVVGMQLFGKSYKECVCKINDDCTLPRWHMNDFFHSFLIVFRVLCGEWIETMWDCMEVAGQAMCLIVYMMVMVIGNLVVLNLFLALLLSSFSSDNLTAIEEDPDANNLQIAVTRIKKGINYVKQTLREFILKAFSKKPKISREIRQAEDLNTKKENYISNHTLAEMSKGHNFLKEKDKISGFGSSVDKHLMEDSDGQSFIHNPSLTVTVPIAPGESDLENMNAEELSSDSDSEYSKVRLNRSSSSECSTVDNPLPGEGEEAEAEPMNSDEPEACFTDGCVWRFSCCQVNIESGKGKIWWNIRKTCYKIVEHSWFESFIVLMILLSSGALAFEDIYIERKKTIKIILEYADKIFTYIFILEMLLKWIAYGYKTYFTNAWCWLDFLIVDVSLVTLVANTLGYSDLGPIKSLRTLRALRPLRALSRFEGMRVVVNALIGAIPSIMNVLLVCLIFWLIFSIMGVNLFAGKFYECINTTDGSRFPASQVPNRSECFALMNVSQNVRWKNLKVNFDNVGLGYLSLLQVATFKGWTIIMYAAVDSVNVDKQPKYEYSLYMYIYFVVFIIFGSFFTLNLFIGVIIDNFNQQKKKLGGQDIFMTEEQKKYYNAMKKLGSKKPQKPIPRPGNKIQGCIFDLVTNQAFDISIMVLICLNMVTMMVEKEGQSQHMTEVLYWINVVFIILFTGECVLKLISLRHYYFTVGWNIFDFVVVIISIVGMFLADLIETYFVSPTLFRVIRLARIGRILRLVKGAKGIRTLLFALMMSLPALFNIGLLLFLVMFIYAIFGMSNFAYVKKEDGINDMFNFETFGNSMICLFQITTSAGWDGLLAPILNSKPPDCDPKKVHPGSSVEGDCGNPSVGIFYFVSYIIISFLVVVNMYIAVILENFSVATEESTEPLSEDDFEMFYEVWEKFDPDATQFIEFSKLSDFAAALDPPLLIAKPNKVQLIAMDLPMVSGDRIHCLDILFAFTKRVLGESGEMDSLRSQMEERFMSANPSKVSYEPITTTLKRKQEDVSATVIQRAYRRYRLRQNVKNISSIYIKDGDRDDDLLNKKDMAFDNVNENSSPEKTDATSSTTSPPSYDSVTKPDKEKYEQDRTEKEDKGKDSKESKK
# Procedure: The potencies of the compounds provided herein to block specific Na+ channels was measured using automated patch clamp electrophysiologically of Nav1.7 sodium channels (human SCN9A gene) stably expressed in CHO cells using the IonWorks™ Barracuda system. Currents were measured from the whole cell patch configuration. From a holding potential of −90 mV, membranes were subjected to a 200 ms pre-pulse to −120 mV, then pulsed to 0 mV to measure blockade of the tonic (resting) state. Inactivated state block was elicited by repolarization to −100 mV (20 ms pulse duration), followed by depolarization to 0 mV (20 ms pulse duration). Peak inward Na+ currents were measured in the presence of vehicle or various concentrations of the test compound to determine the percent block of current. Concentration-response relationships were used to calculate IC50 values for the illustrative compounds.
# AFP model = assay: AFP animal model; assay type: in vivo
# Excerpt: The efficacy of the compounds when evaluated in additional well-known animal models, AFP, RR, and hyperalgesia, was also explored.
# [2] = Pharmacokinetics after intravenous or oral dosing, plasma LC/MS/MS; assay type: in vivo; conditions: fasted male Sprague Dawley rats
# Procedure: Fasted, male Sprague Dawley rats were dosed intravenously or orally. Blood samples were collected at pre-determined time points and plasma was separated. Test article concentrations were determined in plasma by a LC/MS/MS method. Non compartmental analysis was performed to estimate the area under the plasma concentration vs. time curve (AUC). Clearance parameters (CL), bioavailabilities (F) and half-lives were calculated.
# Na+ channels = assay: Blockage of Na+ channels, whole-cell patch clamp, isolated dorsal root ganglion cells; assay type: cell-based, rat
# Procedure: Currents are measured using the whole-cell variant of the patch clamp method. INa is elicited by a pulse to −20 mV from a holding potential of −120 mV or −70 mV to measure blockade at the inactivated state (pulse duration of 40 ms), Peak inward current is measured for INa. Pacing rates of […] are examined. Increasing concentrations of test compounds are added to the cells in a cumulative manner to generate a concentration-response relationship which is utilized to calculate the IC50.
# [3] = inactivated state block, CHO cells, read-out: Inactivated state IC50
# [4] = tonic (resting) state block, CHO cells, read-out: Tonic state IC50
# [5] = AFP, Ph 2, timepoint 0.5 h, minimum effective dose
# [6] = read-out: Inactivated state IC50
Compound,"IC50 [1, 3]","IC50 [1, 4]",exposure after oral dosing (qualitative ranking) [2],"IC50 [1, 6]",IC50 ([1]; read-out: Tonic state IC50),pharmacokinetics (qualitative ranking of the compounds tested) [2],other results
"CC(C)(CO)Nc1nnc(-c2cccc(Cl)c2Cl)c(N)n1 [Compound 1, 2-((5-amino-6-(2,3-dichlorophenyl)-1,2,4-triazin-3-yl)amino)-2-methylpropan-1-ol]",60.1 µM and < 50 µM,> 200 µM and 197 µM,–,–,–,–,"MED (mg/kg) (AFP model; [5]): 450 (Ph 2) mg/kg; ED50 (AFP model; AFP, Ph 2, timepoint 0.5 h, read-out: ED50): 589 mg/kg"
"CCOC[C@H](O)CN1CCN(c2nnc(-c3cccc(Cl)c3Cl)c(N)n2)CC1 [Compound 55, (R)-1-(4-(5-Amino-6-(2,3-dichlorophenyl)-1,2,4-triazin-3-yl)piperazin-1-yl)-3-ethoxypropan-2-ol]",62.3 µM,> 200 µM,best exposure after oral dosing,–,–,–,–
"CC(C)OC[C@H](O)CN1CCN(c2nnc(-c3cccc(Cl)c3Cl)c(N)n2)CC1 [Compound 73, (R)-1-(4-(5-Amino-6-(2,3-dichlorophenyl)-1,2,4-triazin-3-yl)piperazin-1-yl)-3-isopropoxypropan-2-ol]",< 50 µM,179 µM,best exposure after oral dosing,–,–,–,–
"Nc1nc(N2CCNCC2)nnc1-c1cccc(Cl)c1Cl [Compound 79, 6-(2,3-dichlorophenyl)-3-(piperazin-1-yl)-1,2,4-triazin-5-amine]",95.3 µM,> 200 µM,best exposure after oral dosing,–,–,–,–
"CC(CO)N1CCN(c2nnc(-c3cccc(Cl)c3Cl)c(N)n2)CC1 (stereo not shown) [Compound 89, 2-(4-(5-amino-6-(2,3-dichlorophenyl)-1,2,4-triazin-3-yl)piperazin-1-yl)propan-1-ol]",66.6 µM,> 200 µM,best exposure after oral dosing,–,–,–,–
"CC(C)(CO)N1CCN(c2nnc(-c3cccc(Cl)c3Cl)c(N)n2)CC1 [Compound 90, 2-(4-(5-amino-6-(2,3-dichlorophenyl)-1,2,4-triazin-3-yl)piperazin-1-yl)-2-methylpropan-1-ol]",–,–,best exposure after oral dosing,56.2 µM,183 µM,–,–
"Nc1nc(N2CCN(CC(O)CO)CC2)nnc1-c1cccc(Cl)c1Cl (stereo not shown) [Compound 92, 3-(4-(5-amino-6-(2,3-dichlorophenyl)-1,2,4-triazin-3-yl)piperazin-1-yl)propane-1,2-diol]",> 300 µM,> 200 µM,best exposure after oral dosing,–,–,–,–
"Cl.Cl.Nc1nc(N2CCN(C[C@H](O)COCC(F)(F)F)CC2)nnc1-c1cccc(Cl)c1Cl [Compound 95, (S)-1-(4-(5-amino-6-(2,3-dichlorophenyl)-1,2,4-triazin-3-yl)-piperazin-1-yl)-3-(2,2,2-trifluoroethoxy)-propan-2-ol-2HCl]",–,–,best exposure after oral dosing,–,–,most favorable pharmacokinetics,"MED (mg/kg) (AFP model; AFP, Ph 1, timepoint 0.5 h, 500 mg/kg as 2 doses @ 250 mg/kg): 500 (Ph 1) mg/kg"
"COC[C@H](O)CN1CCN(c2nnc(-c3cccc(Cl)c3Cl)c(N)n2)CC1 [Compound 96, (R)-1-(4-(5-amino-6-(2,3-dichlorophenyl)-1,2,4-triazin-3-yl)piperazin-1-yl)-3-methoxypropan-2-ol]",–,–,best exposure after oral dosing,< 50 µM,> 200 µM,most favorable pharmacokinetics,–
"COC[C@@H](O)CN1CCN(c2nnc(-c3cccc(Cl)c3Cl)c(N)n2)CC1 [Compound 97, (S)-1-(4-(5-amino-6-(2,3-dichlorophenyl)-1,2,4-triazin-3-yl)piperazin-1-yl)-3-methoxypropan-2-ol]",90.5 µM,–,best exposure after oral dosing,< 50 µM and 82.2 µM,> 200 µM,most favorable pharmacokinetics,"IC50 (Na+ channels; Vh −70 mV (inactivated state), pacing 0.1 Hz, read-out: IC50 (μM) 0.1 Hz): 39.5 µM; IC50 (Na+ channels; Vh −70 mV (inactivated state), pacing 3 Hz, read-out: IC50 (μM) 3 Hz): 21.5 µM; IC50 (Na+ channels; Vh −70 mV (inactivated state), pacing 10 Hz, read-out: IC50 (μM) 10 Hz): 16.5 µM; IC50 (Na+ channels; Vh −120 mV, pacing 0.1 Hz, read-out: IC50 (μM) 0.1 Hz): > 100 µM; IC50 (Na+ channels; Vh −120 mV, pacing 3 Hz, read-out: IC50 (μM) 3 Hz): > 100 µM; IC50 (Na+ channels; Vh −120 mV, pacing 10 Hz, read-out: IC50 (μM) 10 Hz): 74.4 µM"
"COC[C@@H](O)CN1CCN(c2nnc(-c3cccc(Cl)c3Cl)c(N)n2)CC1 [Compound 98, (S)-1-(4-(5-amino-6-(2,3-dichlorophenyl)-1,2,4-triazin-3-yl)piperazin-1-yl)-3-methoxypropan-2-ol]",–,–,best exposure after oral dosing,57.5 µM and < 50 µM,> 200 µM,–,–
"Nc1nc(N2CCN3C(=O)OC[C@H]3C2)nnc1-c1cccc(Cl)c1Cl [Compound 127, (R)-7-(5-amino-6-(2,3-dichlorophenyl)-1,2,4-triazin-3-yl)tetrahydro-1H-oxazolo[3,4-a]pyrazin-3(5H)-one]",–,–,best exposure after oral dosing,> 300 µM,> 200 µM,most favorable pharmacokinetics,–
"Nc1nc(N2CCN3C(=O)OC[C@@H]3C2)nnc1-c1cccc(Cl)c1Cl [Compound 128, (S)-7-(5-amino-6-(2,3-dichlorophenyl)-1,2,4-triazin-3-yl)tetrahydro-1H-oxazolo[3,4-a]pyrazin-3(5H)-one HCl salt]",–,–,best exposure after oral dosing,> 300 µM,> 200 µM,most favorable pharmacokinetics,–
"Nc1nc(N2CCN3C(=O)COC[C@H]3C2)nnc1-c1cccc(Cl)c1Cl [Compound 130, (R)-8-(5-amino-6-(2,3-dichlorophenyl)-1,2,4-triazin-3-yl)hexahydropyrazino[2,1-c][1,4]oxazin-4(3H)-one HCl salt]",–,–,best exposure after oral dosing,204 µM,> 200 µM,most favorable pharmacokinetics,–
"Nc1nc(NCCOCCOCCOC(F)(F)F)nnc1-c1cccc(Cl)c1Cl [Compound 167, 6-(2,3-dichlorophenyl)-N^3-(2-(2-(2-(trifluoromethoxy)ethoxy)ethoxy)ethyl)-1,2,4-triazine-3,5-diamine]",< 50 µM,108 µM and 91.5 µM and 130 µM,–,–,–,–,"MED (AFP model; AFP, +ABT, timepoint 0.5 h, minimum effective dose): 100 mg/kg"
"COCCOCCOCC(C)Nc1nnc(-c2cccc(Cl)c2Cl)c(N)n1 (stereo not shown) [Compound 188, 6-(2,3-dichlorophenyl)-N3-(1-(2-(2-methoxyethoxy)ethoxy)propan-2-yl)-1,2,4-triazine-3,5-diamine.HCl]",–,–,best exposure after oral dosing,–,–,–,–
"Nc1nc(N2CCN(CCO)CC2)nnc1-c1cccc(Cl)c1Cl [Compound 200, 2-(4-(5-amino-6-(2,3-dichlorophenyl)-1,2,4-triazin-3-yl)piperazin-1-yl)ethanol]",120 µM,> 200 µM,best exposure after oral dosing,–,–,–,–
"Nc1nc(N2CCN(CCOCCO)CC2)nnc1-c1cccc(Cl)c1Cl [Compound 201, 2-(2-(4-(5-amino-6-(2,3-dichlorophenyl)-1,2,4-triazin-3-yl)piperazin-1-yl)ethoxy)ethanol]",202 µM,> 200 µM,best exposure after oral dosing,–,–,–,–
"CS(=O)(=O)CCN1CCN(c2nnc(-c3cccc(Cl)c3Cl)c(N)n2)CC1 [Compound 202, 6-(2,3-dichlorophenyl)-3-(4-(2-(methylsulfonyl)ethyl)piperazin-1-yl)-1,2,4-triazin-5-amine]",–,–,best exposure after oral dosing,> 300 µM,> 200 µM,–,–
"Nc1nc(N2CCN(C[C@H](O)CCl)CC2)nnc1-c1cccc(Cl)c1Cl [Compound 207, (S)-1-(4-(5-amino-6-(2,3-dichlorophenyl)-1,2,4-triazin-3-yl)piperazin-1-yl)-3-chloropropan-2-ol]",107 µM and 133 µM,> 200 µM,best exposure after oral dosing,–,–,–,ED50 (AFP model; 0.5 h): 476 mg/kg; MED (mg/kg) (AFP model; [5]): 300 (Ph 2) mg/kg
